According to patent US6716873B1, “Tocopherol ester compounds” (Yasoo Health Inc., priority 2003, dated 2004):

Legend:
MCF-7 cells [1] = assay: Cell viability assay, crystal violet staining (OD620 of cell lysates); settings: for OD620 of the cell lysates (crystal violet) / statistical significance of decrease in cell growth / effect on cell growth compared to control (FIG. 1): MCF-7; for OD620 of the cell lysates (crystal violet): equimolar concentrations corresponding to 10 μg/mL of VES; for statistical significance of decrease in cell growth: Day 7, day of maximal proliferation rate; for effect on cell growth compared to control (FIG. 1): equimolar concentrations
Procedure: (§1) Experimental media. […] Stock solutions were maintained at 4° C.
Cells were plated in triplicate in 96-well plates and allowed to attaach and reach confluence for 48 hours. On Day 2 test compounds were added at equimolar concentrations corresponding to 10 μg/mL of VES. Cell viability was determined at the specified times by staining with crystal violet and measuring the OD620 of the cell lysates.

MDA-MB-231 cells = assay: Cell growth/viability assay with tetrazolium salt WST-8 (OD 450 nm); settings: MDA-MB-231 (ER-negative); after 6 days of incubation
MCF-7 cells [2] = assay: as above; settings: for inhibitory effect on cell viability (FIG. 2), in words: equimolar concentrations, incubation up to 10 days
Procedure: as §1
Equimolar concentrations of the different compounds were added on day 2 and allowed for incubation for the indicated time period.

[3] = Stability in the culture media by TLC
[4] = Chemical stability (solid state, organic solvent, aqueous base by 1H NMR); type: physicochemical; settings: pH=9, room temperature, one day
[5] = Day 0, equimolar concentrations, added on day 2
[6] = Day 2, equimolar concentrations
[7] = Day 4, equimolar concentrations
[8] = Day 7, equimolar concentrations
[9] = Day 9, equimolar concentrations
[10] = Day 11, equimolar concentrations

For `O=[Se](=O)([O-])[O-].[Na+].[Na+]` [Na Selenate, sodium selenate, reference compound], the “cytotoxic effect on MCF-7 cells” value (MCF-7 cells [1]; 3.26 μg/mL (equimolar to 10 μg/mL of VES)) was 100%, the “OD620 of the cell lysates (crystal violet)” value (“OD620 of the cell lysates” below) (MCF-7 cells [1]; Day 0, added on Day 2) was 0 and the “OD620 of the cell lysates” value (MCF-7 cells [1]; Day 2) was 0.07344. The “OD620 of the cell lysates” value (MCF-7 cells [1]; Day 5) was 0.06117, the “statistical significance of decrease in cell growth” value (MCF-7 cells [1]) was “statistically significant decrease in cell growth” and the “OD620 of the cell lysates” value (MCF-7 cells [1]; Day 7) was 0.082. The “OD620 of the cell lysates” value (MCF-7 cells [1]; Day 9) was 0.05411.

For `O=c1[nH]cc(F)c(=O)[nH]1` [5-FU, 5-fluorouracil, reference compound], the “inhibition of cell growth” value (MDA-MB-231 cells) was 31%.

In the case of `Cc1c(C)c2c(c(C)c1OC(=O)CCC(=O)O)CC[C@@](C)(CCC[C@H](C)CCC[C@H](C)CCCC(C)C)O2` [VES, RRR-α-tocopheryl succinate, reference compound], the “optical density (OD) of formazan dye at 450 nm (WST-8)” value (shortened to “optical density (OD) of formazan dye”) (MCF-7 cells [2]; [5]) was 0, the “optical density (OD) of formazan dye” value (MCF-7 cells [2]; [6]) was 0.8005 and the “optical density (OD) of formazan dye” value (MCF-7 cells [2]; [7]) was 1.439. For the same molecule, the “optical density (OD) of formazan dye” value (MCF-7 cells [2]; [8]) was 3.311, the “optical density (OD) of formazan dye” value (MCF-7 cells [2]; [9]) was 3.427 and the “optical density (OD) of formazan dye” value (MCF-7 cells [2]; [10]) was 2.99. For the same molecule, the “inhibitory effect on cell viability (FIG. 2), in words” value (“inhibitory effect on cell viability” for short) (MCF-7 cells [2]) was “inhibited cell growth more effectively during the first 7 days of incubation” and the “inhibition of cell growth” value (MDA-MB-231 cells) was 44%.

In the case of `Cc1c(C)c2c(c(C)c1OC(=O)C(CC(=O)O)[Se]c1ccccc1)CC[C@@](C)(CCC[C@H](C)CCC[C@H](C)CCCC(C)C)O2` (stereo partly drawn) [PSSA-α-Toc, 2-phenylselanyl-succinic acid RRR-α-tocopherol ester], the “OD620 of the cell lysates” value (MCF-7 cells [1]; Day 0, added on Day 2) was 0, the “OD620 of the cell lysates” value (MCF-7 cells [1]; Day 2) was 0.325 and the “OD620 of the cell lysates” value (MCF-7 cells [1]; Day 5) was 0.9504. The “statistical significance of decrease in cell growth” value (MCF-7 cells [1]) was “statistically significant decrease in cell growth”, the “OD620 of the cell lysates” value (MCF-7 cells [1]; Day 7) was 1.227 and the “OD620 of the cell lysates” value (MCF-7 cells [1]; Day 9) was 1.162. The “effect on cell growth compared to control (FIG. 1)” value (MCF-7 cells [1]) was “inhibited cell growth much more effectively”, the “optical density (OD) of formazan dye” value (MCF-7 cells [2]; [5]) was 0 and the “optical density (OD) of formazan dye” value (MCF-7 cells [2]; [6]) was 0.7806. For the same molecule, the “optical density (OD) of formazan dye” value (MCF-7 cells [2]; [7]) was 1.4215, the “optical density (OD) of formazan dye” value (MCF-7 cells [2]; [8]) was 2.998 and the “optical density (OD) of formazan dye” value (MCF-7 cells [2]; [9]) was 2.812. For the same molecule, the “optical density (OD) of formazan dye” value (MCF-7 cells [2]; [10]) was 2.105, the “cytotoxicity, in words” value (MCF-7 cells [2]; concentration equivalent to IC50) was “not cytotoxic” and the “inhibitory effect on cell viability” value (MCF-7 cells [2]) was “most potent inhibitory effect throughout the culture period”. The “inhibition of cell growth” value (MDA-MB-231 cells) was 65% and the “stability in the culture media (TLC)” value [3] was “stable for more than one weak”.

In the case of `O=C(O)CC([Se]c1ccccc1)C(=O)O` (stereo not shown) [PSSA, phenylselanyl-succinic acid], the “OD620 of the cell lysates” value (MCF-7 cells [1]; Day 0, added on Day 2) was 0, the “OD620 of the cell lysates” value (MCF-7 cells [1]; Day 2) was 0.3842 and the “OD620 of the cell lysates” value (MCF-7 cells [1]; Day 5) was 1.218. The “OD620 of the cell lysates” value (MCF-7 cells [1]; Day 7) was 1.693, the “OD620 of the cell lysates” value (MCF-7 cells [1]; Day 9) was 1.495 and the “effect on cell growth compared to control (FIG. 1)” value (MCF-7 cells [1]) was “no measurable effect compared to control”. For the same molecule, the “decomposition of aqueous solution (1H NMR)” value [4] was “less than 5%”, the “optical density (OD) of formazan dye” value (MCF-7 cells [2]; [5]) was 0 and the “optical density (OD) of formazan dye” value (MCF-7 cells [2]; [6]) was 0.9149. The “optical density (OD) of formazan dye” value (MCF-7 cells [2]; [7]) was 2.019, the “optical density (OD) of formazan dye” value (MCF-7 cells [2]; [8]) was 3.618 and the “optical density (OD) of formazan dye” value (MCF-7 cells [2]; [9]) was 3.541. The “optical density (OD) of formazan dye” value (MCF-7 cells [2]; [10]) was 3.451, the “inhibitory effect on cell viability” value (MCF-7 cells [2]) was “no inhibitory effect over the first 7 days of incubation” and the “inhibition of cell growth” value (MDA-MB-231 cells) was 31%. For the same molecule, the “stability in the culture media (TLC)” value [3] was “stable for more than one weak”.
